Measured values: PMC4450297, “Screening Active Compounds from Garcinia Species Native to China Reveals Novel Compounds Targeting the STAT/JAK Signaling Pathway” (BioMed Research International, 2015)

Test system: A498
Assay: Cell panel screen (CellTiter-Glo)
Assay type: cell-based, human
Conditions: A498 (listed under Lung), 20 micromolar, 72 hrs
Method: (§1) All cells were obtained from the cell bank of the American Type Culture Collection (ATCC) and cultured in the supplier's recommended media supplemented with 10% FBS. The cell panel screen was measured using the CellTiter-Glo assay (Promega, Madison, WI) following a standard protocol. Briefly, cancer cells were seeded in 96-well plates and cultured overnight at 37°C with or without 5% CO2 in an incubator. Each compound was dissolved with limited DMSO and diluted to a certain concentration with culture medium and then added to the corresponding well of the cell plate. The final concentration of compound was 20 μM. The control cells (without treatment) received the same amount of DMSO and were incubated under the same conditions. After 72 h cultivation, 100 μL of the CellTiter-Glo reagent was added directly to each well for 10-minute incubation. The plate was then read on a FlexStation 3 microplate luminometer (Molecular Devices, USA) to monitor the luminescence signal generated by the luciferase-catalyzed reaction of luciferin and ATP. The percent of growth inhibition was calculated using the following formula: (untreated cells − treated cells)/(untreated cells − background without cells) ∗ 100.

Row | SMILES | Percent Inhibition [%]
1 | COC(=O)C1OC(Oc2cc(O)c3c(c2)OC(c2ccc(O)c(O)c2)CC3=O)C(O)C(O)C1O (stereo not drawn) [gly-5] | -12

Test system: A704
Assay: Cell panel screen (CellTiter-Glo)
Assay type: cell-based, human
Conditions: A704 (Kidney), 20 micromolar, 72 hrs
Method: as §1

Row | SMILES | Percent Inhibition [%]
2 | COC(=O)C1OC(Oc2cc(O)c3c(c2)OC(c2ccc(O)c(O)c2)CC3=O)C(O)C(O)C1O (stereo not drawn) [gly-5] | -7

Test system: BT-474
Assay: Cell panel screen (CellTiter-Glo)
Assay type: cell-based, human
Conditions: BT-474 (Breast), 20 micromolar, 72 hrs
Method: as §1

Row | SMILES | Percent Inhibition [%]
3 | COC(=O)C1OC(Oc2cc(O)c3c(c2)OC(c2ccc(O)c(O)c2)CC3=O)C(O)C(O)C1O (stereo not drawn) [gly-5] | -15

Test system: BT-549
Assay: Cell panel screen (CellTiter-Glo)
Assay type: cell-based, human
Conditions: BT-549 (Breast), 20 micromolar, 72 hrs
Method: as §1

Row | SMILES | Percent Inhibition [%]
4 | COC(=O)C1OC(Oc2cc(O)c3c(c2)OC(c2ccc(O)c(O)c2)CC3=O)C(O)C(O)C1O (stereo not drawn) [gly-5] | -12

Test system: Bel-7402
Assay: Cell panel screen (CellTiter-Glo)
Assay type: cell-based, human
Conditions: Bel-7402 (Liver), 20 micromolar, 72 hrs
Method: as §1

Row | SMILES | Percent Inhibition [%]
5 | COC(=O)C1OC(Oc2cc(O)c3c(c2)OC(c2ccc(O)c(O)c2)CC3=O)C(O)C(O)C1O (stereo not drawn) [gly-5] | -8

Test system: C3A
Assay: Cell panel screen (CellTiter-Glo)
Assay type: cell-based, human
Conditions: C3A (Liver), 20 micromolar, 72 hrs
Method: as §1

Row | SMILES | Percent Inhibition [%]
6 | COC(=O)C1OC(Oc2cc(O)c3c(c2)OC(c2ccc(O)c(O)c2)CC3=O)C(O)C(O)C1O (stereo not drawn) [gly-5] | -1

Test system: C8166
Assay: Cell panel screen (CellTiter-Glo)
Assay type: cell-based, human
Conditions: C8166 (Leukemia), 20 micromolar, 72 hrs
Method: as §1

Row | SMILES | Percent Inhibition [%]
7 | COC(=O)C1OC(Oc2cc(O)c3c(c2)OC(c2ccc(O)c(O)c2)CC3=O)C(O)C(O)C1O (stereo not drawn) [gly-5] | -5

Test system: CCF-STTG1
Assay: Cell panel screen (CellTiter-Glo)
Assay type: cell-based, human
Conditions: CCF-STTG1 (Brain), 20 micromolar, 72 hrs
Method: as §1

Row | SMILES | Percent Inhibition [%]
8 | COC(=O)C1OC(Oc2cc(O)c3c(c2)OC(c2ccc(O)c(O)c2)CC3=O)C(O)C(O)C1O (stereo not drawn) [gly-5] | 8

Test system: CW-2
Assay: Cell panel screen (CellTiter-Glo)
Assay type: cell-based, human
Conditions: CW-2 (Colon), 20 micromolar, 72 hrs
Method: as §1

Row | SMILES | Percent Inhibition [%]
9 | COC(=O)C1OC(Oc2cc(O)c3c(c2)OC(c2ccc(O)c(O)c2)CC3=O)C(O)C(O)C1O (stereo not drawn) [gly-5] | 1

Test system: ChaGo-K-1
Assay: Cell panel screen (CellTiter-Glo)
Assay type: cell-based, human
Conditions: ChaGo-K-1 (Lung), 20 micromolar, 72 hrs
Method: as §1

Row | SMILES | Percent Inhibition [%]
10 | COC(=O)C1OC(Oc2cc(O)c3c(c2)OC(c2ccc(O)c(O)c2)CC3=O)C(O)C(O)C1O (stereo not drawn) [gly-5] | -10

Test system: Colo 205
Assay: Cell panel screen (CellTiter-Glo)
Assay type: cell-based, human
Conditions: Colo 205, 20 micromolar, 72 hrs
Method: as §1

Row | SMILES | Percent Inhibition [%]
11 | COC(=O)C1OC(Oc2cc(O)c3c(c2)OC(c2ccc(O)c(O)c2)CC3=O)C(O)C(O)C1O (stereo not drawn) [gly-5] | -4

Test system: HCC1395
Assay: Cell panel screen (CellTiter-Glo)
Assay type: cell-based, human
Conditions: HCC1395 (Breast), 20 micromolar, 72 hrs
Method: as §1

Row | SMILES | Percent Inhibition [%]
12 | COC(=O)C1OC(Oc2cc(O)c3c(c2)OC(c2ccc(O)c(O)c2)CC3=O)C(O)C(O)C1O (stereo not drawn) [gly-5] | 11

Test system: HCC1569
Assay: Cell panel screen (CellTiter-Glo)
Assay type: cell-based, human
Conditions: HCC1569 (Breast), 20 micromolar, 72 hrs
Method: as §1

Row | SMILES | Percent Inhibition [%]
13 | COC(=O)C1OC(Oc2cc(O)c3c(c2)OC(c2ccc(O)c(O)c2)CC3=O)C(O)C(O)C1O (stereo not drawn) [gly-5] | -7

Test system: HCC1599
Assay: Cell panel screen (CellTiter-Glo)
Assay type: cell-based, human
Conditions: HCC1599 (Breast), 20 micromolar, 72 hrs
Method: as §1

Row | SMILES | Percent Inhibition [%]
14 | COC(=O)C1OC(Oc2cc(O)c3c(c2)OC(c2ccc(O)c(O)c2)CC3=O)C(O)C(O)C1O (stereo not drawn) [gly-5] | -41

Test system: HCC1937
Assay: Cell panel screen (CellTiter-Glo)
Assay type: cell-based, human
Conditions: HCC1937 (Breast), 20 micromolar, 72 hrs
Method: as §1

Row | SMILES | Percent Inhibition [%]
15 | COC(=O)C1OC(Oc2cc(O)c3c(c2)OC(c2ccc(O)c(O)c2)CC3=O)C(O)C(O)C1O (stereo not drawn) [gly-5] | 1

Test system: HEC-1-A
Assay: Cell panel screen (CellTiter-Glo)
Assay type: cell-based, human
Conditions: HEC-1-A (Uterus), 20 micromolar, 72 hrs
Method: as §1

Row | SMILES | Percent Inhibition [%]
16 | COC(=O)C1OC(Oc2cc(O)c3c(c2)OC(c2ccc(O)c(O)c2)CC3=O)C(O)C(O)C1O (stereo not drawn) [gly-5] | -16

Test system: HGC-27
Assay: Cell panel screen (CellTiter-Glo)
Assay type: cell-based, human
Conditions: HGC-27 (Stomach), 20 micromolar, 72 hrs
Method: as §1

Row | SMILES | Percent Inhibition [%]
17 | COC(=O)C1OC(Oc2cc(O)c3c(c2)OC(c2ccc(O)c(O)c2)CC3=O)C(O)C(O)C1O (stereo not drawn) [gly-5] | -2

Test system: HPAF-II
Assay: Cell panel screen (CellTiter-Glo)
Assay type: cell-based, human
Conditions: HPAF-II (Pancreas), 20 micromolar, 72 hrs
Method: as §1

Row | SMILES | Percent Inhibition [%]
18 | COC(=O)C1OC(Oc2cc(O)c3c(c2)OC(c2ccc(O)c(O)c2)CC3=O)C(O)C(O)C1O (stereo not drawn) [gly-5] | -7
